One may read the EC50 as the concentration giving half of the maximal effect.

This test concerns HCV 1b genotype. Description: HCV Replicon assay (HCV 16-377-neo replicon cells). Conditions: Hepatitis C virus; HCV 1b genotype replicon cells; read-out: EC50 ranges against HCV 1b. The format is cell-based. On the procedure:
An HCV Replion assay was utilized in the present disclosure, and was prepared, conducted and validated as described in commonly owned PCT/US2006/022197 and in O'Boyle et. al. Antimicrob Agents Chemother. 2005 Apr;49(4): 1346-53.
HCV 16-377-neo replicon cells were used to test the currently described compound series as well as cells resistant to compound A due to a Y2065H mutation in NS5A (described in application PCT/US2006/022197). The compounds tested were determined to have more than 10-fold less inhibitory activity on cells resistant to compound A than wild-type cells indicating a related mechanism of action between the two compound series. Thus, the compounds of the present disclosure can be effective to inhibit the function of the HCV NS5A protein and are understood to be as effective in combinations as previously described in application PCT/US2006/022197 and commonly owned WO/O4014852. Further, the compounds of the present disclosure can be effective against the HCV 1b genotype. It should also be understood that the compounds of the present disclosure can inhibit multiple genotypes of HCV. […] In one embodiment compounds of the present disclosure are active against the 1a, 1b, 2a, 2b, 3a, 4a, and 5a genotypes.
On the technique in general: A replicon is a self-replicating genome or part of one, used to study replication in cells.
With `COC(=O)N[C@@H](C(=O)N1CCC[C@H]1c1nc(-c2ccc(-c3ccc(-c4nc([C@@H]5CCCN5C(=O)[C@H](NC(=O)OC)c5ccccc5)[nH]c4C)cc3)cc2)c[nH]1)c1ccccc1` [Example E5c, methyl ((1R)-2-((2S)-2-(4-(4'-(2-((2S)-1-((2R)-2-((methoxycarbonyl)amino)-2-phenylacetyl)-2-pyrrolidinyl)-1H-imidazol-4-yl)-4-biphenylyl)-5-methyl-1H-imidazol-2-yl)-1-pyrrolidinyl)-2-oxo-1-phenylethyl)carbam ate], the EC50 lay in the range of 0.001 to 0.999 nM.
The same measure for `COC(=O)N[C@@H](C)C(=O)N1CCC[C@H]1c1nc(-c2ccc(-c3ccc(-c4[nH]c([C@@H]5CCCN5C(=O)[C@H](C)NC(=O)OC)nc4C)cc3)cc2)c[nH]1` [Example E5d, methyl ((1S)-2-((2S)-2-(4-(4'-(2-((2S)-1-(N-(methoxycarbonyl)-L-alanyl)-2-pyrrolidinyl)-4-methyl-1H-imidazol-5-yl)-4-biphenylyl)-1H-imidazol-2-yl)-1-pyrrolidinyl)-1-methyl-2-oxoethyl)carbamate]: 0.001 to 0.999 nM.
The same measure for `COC(=O)N[C@H](C(=O)N1CCC[C@H]1c1nc(-c2ccc(-c3ccc(-c4nc([C@@H]5CCCN5C(=O)[C@@H](NC(=O)OC)C(C)C)[nH]c4C)cc3)cc2)c[nH]1)C(C)C` [Example E5e, methyl ((1S)-1-(((2S)-2-(4-(4'-(2-((2S)-1-((2S)-2-((methoxycarbonyl)amino)-3-methylbutanoyl)-2-pyrrolidinyl)-1H-imidazol-4-yl)-4-biphenylyl)-5-methyl-1H-imidazol-2-yl)-1-pyrrolidinyl)carbonyl)-2-methylpropyl)carba mate]: 0.001 to 0.999 nM.
The same measure for `COC(=O)N[C@H](C(=O)N1CCC[C@H]1c1nc(-c2ccc(-c3ccc(-c4[nH]c([C@@H]5CCCN5C(=O)[C@@H](NC(=O)OC)[C@@H](C)OC)nc4C)cc3)cc2)c[nH]1)[C@@H](C)OC` [Example E5f, methyl ((1S,2R)-2-methoxy-1-(((2S)-2-(4-(4'-(2-((2S)-1-(N-(methoxycarbonyl)-O-methyl-L-threonyl)-2-pyrrolidinyl)-4-methyl-1H-imidazol-5-yl)-4-biphenylyl)-1H-imidazol-2-yl)-1-pyrrolidinyl)carbonyl)propyl)carbamate]: 0.001 to 0.999 nM.
Consider `Cc1nc([C@@H]2CCCN2C(=O)[C@@H](c2ccccc2)N(C)C)[nH]c1-c1ccc(-c2ccc(-c3[nH]c([C@@H]4CCCN4C(=O)[C@@H](c4ccccc4)N(C)C)nc3C)cc2)cc1` [Example E5g, (1R,1'R)-2,2'-(4,4'-biphenyldiylbis((4-methyl-1H-imidazole-5,2-diyl)(2S)-2,1-pyrrolidinediyl))bis (N,N-dimethyl-2-oxo-1-phenylethanamine)], for which the EC50 is 0.001 to 0.999 nM.
The result for `CCN(CC)[C@@H](C(=O)N1CCC[C@H]1c1nc(C)c(-c2ccc(-c3ccc(-c4[nH]c([C@@H]5CCCN5C(=O)[C@@H](c5ccccc5)N(CC)CC)nc4C)cc3)cc2)[nH]1)c1ccccc1` [Example E5h, (1R,1'R)-2,2'-(4,4'-biphenyldiylbis((4-methyl-1H-imidazole-5,2-diyl)(2S)-2,1-pyrrolidinediyl))bis (N,N-diethyl-2-oxo-1-phenylethanamine)] reads 0.001 to 0.999 nM; that for `Cc1nc([C@@H]2CCCN2C(=O)[C@@H](c2ccccc2)N2CCCCC2)[nH]c1-c1ccc(-c2ccc(-c3[nH]c([C@@H]4CCCN4C(=O)[C@@H](c4ccccc4)N4CCCCC4)nc3C)cc2)cc1` [Example E5i, 1,1'-(4,4'-biphenyldiylbis((4-methyl-1H-imidazole-5,2-diyl)(2S)-2,1-pyrrolidinediyl((1R )-2-oxo-1-phenyl-2,1-ethanediyl)))dipiper idine], 0.001 to 0.999 nM; that for `COC(=O)N[C@@H](C(=O)N1CCC[C@H]1c1nc(C)c(-c2ccc(-c3ccc(-c4[nH]c([C@@H]5CCCN5C(=O)[C@H](NC(=O)OC)c5ccccc5)nc4C)cc3)cc2)[nH]1)c1ccccc1` [Example E5j, dimethyl (4,4'-biphenyldiylbis((4-methyl-1H-imidazole-5,2-diyl)(2S)-2,1-pyrrolidinediyl((1R )-2-oxo-1-phenyl-2,1-ethanediyl)))biscarb amate], 0.001 to 0.999 nM.
The same measure for `COC(=O)N[C@@H](C)C(=O)N1CCC[C@H]1c1nc(-c2ccc(-c3ccc(-c4nc([C@@H]5CCCN5C(=O)[C@H](C)NC(=O)OC)[nH]c4C)cc3)cc2)c(C)[nH]1` [Example E5k, methyl ((1S)-2-((2S)-2-(4-(4'-(2-((2S)-1-(N-(methoxycarbonyl)-L-alanyl)-2-pyrrolidinyl)-5-methyl-1H-imidazol-4-yl)-4-biphenylyl)-5-methyl-1H-imidazol-2-yl)-1-pyrrolidinyl)-1-methyl-2-oxoethyl)carbamate]: 0.001 to 0.999 nM; for `COC(=O)N[C@H](C(=O)N1CCC[C@H]1c1nc(-c2ccc(-c3ccc(-c4[nH]c([C@@H]5CCCN5C(=O)[C@@H](NC(=O)OC)C(C)C)nc4C)cc3)cc2)c(C)[nH]1)C(C)C` [Example E5l, methyl ((1S)-1-(((2S)-2-(4-(4'-(2-((2S)-1-((2S)-2-((methoxycarbonyl)amino)-3-methylbutanoyl)-2-pyrrolidinyl)-4-methyl-1H-imidazol-5-yl)-4-biphenylyl)-5-methyl-1H-imidazol-2-yl)-1-pyrrolidinyl)carbonyl)-2-methylpropyl)carba mate]: 0.001 to 0.999 nM.
The same measure for `COC(=O)N[C@H](C(=O)N1CCC[C@H]1c1nc(-c2ccc(-c3ccc(-c4nc([C@@H]5CCCN5C(=O)[C@@H](NC(=O)OC)[C@@H](C)OC)[nH]c4C)cc3)cc2)c(C)[nH]1)[C@@H](C)OC` [Example E5m, methyl ((1S,2R)-2-methoxy-1-(((2S)-2-(4-(4'-(2-((2S)-1-(N-(methoxycarbonyl)-O-methyl-L-threonyl)-2-pyrrolidinyl)-5-methyl-1H-imidazol-4-yl)-4-biphenylyl)-5-methyl-1H-imidazol-2-yl)-1-pyrrolidinyl)carbonyl)propyl)carbamate]: 0.001 to 0.999 nM.
As to `COC(=O)N[C@H](C(=O)N1CCC[C@H]1c1nc(-c2ccc(-c3ccc(-c4[nH]c([C@@H]5CCCN5C(=O)[C@@H](NC(=O)OC)C(C)C)nc4CC4OCCCO4)cc3)cc2)c[nH]1)C(C)C` [Example J14, methyl ((1S)-1-(((2S)-2-(4-(1,3-dioxan-2-ylmethyl)-5-(4'-(2-((2S)-1-((2S)-2-((methoxycarbonyl)amino)-3-methylbutanoyl)-2-pyrrolidinyl)-1H-imidazol-4-yl)-4-biphenylyl)-1H-imidazol-2-yl)-1-pyrrolidinyl)carbonyl)-2-methylpropyl)carba mate], the EC50 was in the range of 0.001 to 0.999 nM.
With `COC(=O)N[C@H](C(=O)N1CCC[C@H]1c1nc(-c2ccc(-c3ccc(-c4[nH]c([C@@H]5CCCN5C(=O)[C@@H](NC(=O)OC)[C@@H](C)OC)nc4CC(OC)OC)cc3)cc2)c[nH]1)[C@@H](C)OC` [Example J14a, methyl ((1S,2R)-1-(((2S)-2-(4-(2,2-dimethoxyethyl)-5-(4'-(2-((2S)-1-(N-(methoxycarbonyl)-O-methyl-L-threonyl)-2-pyrrolidinyl)-1H-imidazol-4-yl)-4-biphenylyl)-1H-imidazol-2-yl)-1-pyrrolidinyl)carbonyl)-2-methoxypropyl)car bamate], the EC50 was in the range of 0.001 to 0.999 nM.

The values are drawn from patent EP2242752B1, “[…] IMIDAZOLES AS HEPATITIS C VIRUS INHIBITORS” (Bristol-Myers Squibb Company, priority 2008, dated 2009).
